# Patent publication US6953786B2, “Compositions comprising plant-derived polyphenolic compounds and inhibitors of reactive oxygen species and methods of using thereof” (The Regents of the University of California, priority 2002, dated 2005)
# Tests used:
# caspase-3 [1] = test: Caspase-3 processing (Western blot); format: cell-based, rat; details: BSp73AS
# Experimental: (§1) In order to determine the effect polyphenolic compounds have on caspase-3 activity, the following assay was conducted. BSp73AS cells were culture in the absence of serum or growth factors for 24 hours in 0, 10, 20, and 50 μM of trans-resveratrol and Mia PACA-2 -cells were cultured for 72 hours in the presences of 0, 10, 20, and 50 μM of tran-resveratrol. Cell lysates were then prepared and 50 μg protein aliquots were loaded per lane and blotted with rabbit polyclonal antibody against caspase-3 (Santa Cruz Biotechnology, Santa Cruz, Calif.). The experiment was repeated 3 times with similar results.
# [2] = tested on: BSp73AS and Mia PACA-2 cells; test: Caspase-3 activity and annexin staining with MG-132 (FIG. 14C); format: cell-based; details: polyphenols 100 μM, MG-132 20 μM
# caspase-3 [3] = test: Caspase-3 processing (Western blot); format: cell-based, human
# Experimental: as §1
smiles,measurement,setting,value
Oc1ccc(/C=C/c2cc(O)cc(O)c2)cc1 [trans-resveratrol],lowest concentration with effect on caspase-3 conversion,caspase-3 [1]; 24 hours (FIG. 6A),20 µM
same,conversion of caspase-3 from inactive to active form,"caspase-3 [1]; 24 hours, no serum, 0-50 μM (FIG. 6A)",convert caspase-3 from its inactive form (32 kDa doublet) to its active form (17 kDa)
O=c1c(-c2ccc(O)cc2)coc2cc(O)cc(O)c12 [genistein],apoptosis (annexin staining),[2],causes significant apoptosis
O=c1c(O)c(-c2ccc(O)c(O)c2)oc2cc(O)cc(O)c12 [quercetin],lowest concentration with effect on caspase-3 conversion,"caspase-3 [3]; Mia PACA-2, 72 hours (FIG. 7A)",20 µM
same,conversion of caspase-3 from inactive to active form,"caspase-3 [3]; Mia PACA-2, 72 hours, 0-50 μM (FIG. 7A)",convert caspase-3 from its inactive form (32 kDa doublet) to its active form (17 kDa)
